Here are results for two compounds from patent US6555372B1, “Composition for enhancing cellular immunogenicity comprising alpha-glycosylceramides” (Kirin Beer Kabushiki Kaisha, priority 1997, dated 2003).

Structures are written as SMILES.

In assay [1] the test system is Mouse T lymphoma EL-4 cells. Put plainly: Therapeutic effect of treated tumor cells in EL-4 liver metastasis model mice. The format is in vivo. The protocol:
Mouse T lymphoma EL-4 cells (4×10^5 cells/mouse) were implanted intravenously into the tail of BDF1 mice (female, 6 weeks of age, Japan SLC, Inc.), 6 animals in one group, to prepare cancer-bearing mice. The days of tumor implantation was set to be day 0. On the same day, a vehicle (0.1% DMSO), KRN 7000 (100 ng/ml) or AGL-583 (100 ng/ml) was added to EL-4 cells which had been inoculated into a fresh medium, in the same manner as in Pharmacological Test 1 above. One day after the start of incubation, cells of EL-4/V, EL-4/KRN and EL-4/583 cultured in the presence of the vehicle, KRN 7000 and AGL-583, respectively, were recovered and washed twice with the medium, after which the recovered cells were immunized intravenously into the tail of the cancer-bearing mice at 1×10^5 cells/mouse. The resulting antitumor effect was compared.
EL-4 implanted mice generally died in about 30 days owing to the tumor formation and growth in several organs, particularly in the liver. Therefore, antitumor effect was evaluated by observing the survival period of cancer-bearing hosts.

In assay [2] the test system is B16, EL-4, Lewis lung carcinoma, Colon 26, L1210 and Meth A mouse tumor cells. In words: Effect of α-glycosylceramide on tumorigenicity of tumor cells. The format is in vivo. The note with it: six mouse tumor cell lines cultured 1 day with 100 ng/ml, implanted i.v. into C57BL/6 or BALB/c mice; FIG. 4. From the text:
Six kinds of mouse tumor cells, i.e., three kinds of C57BL/6 mouse-derived tumor cells, i.e., murine melanoma B16 cells (Dainippon Pharmaceutical Co., Ltd.), mouse T lymphoma EL-4 cells (Dainippon Pharmaceutical Co., Ltd.) and mouse Lewis lung carcinoma cells (Dainippon Pharmaceutical Co., Ltd.), and three kinds of BALB/c-mouse derived tumor cells, i.e., mouse colon cancer cell Colon 26 (Japanese Foundation for Cancer Research), mouse leukemia L1210 cells (Japanese Foundation for Cancer Research) and mouse fibrosarcoma Meth A cells (Japanese Foundation for Cancer Research) were cultured with or without an addition of a vehicle (0.1% DMSO) or KRN 7000 (100 ng/ml) for one day as described in Pharmacological Tests above. The resulting tumor cells were washed twice with a medium, suspended again in a fresh medium and implanted intravenously into the tail of corresponding mice. […]
The tumor cells implanted intravenously into the tail formed metastasized nodules in various organs, particularly in the liver or lung, and ultimately killed the animals. Accordingly, the effect of the tumor cells on tumorigenicity (a rate of tumor formation, the ability to form tumor burden) was evaluated by observing the survival period.

Setting [3] is: EL-4-bearing BDF1 mice immunized i.v. on day 1 with 1×10^5 EL-4 cells cultured 1 day with 100 ng/ml compound, vs control mice with tumor only, FIG. 2.

As for `CCCCCCCCCCCCCCCCCCCCCCCCCC(=O)N[C@@H](CO[C@@H]1O[C@H](CO)[C@H](O)[C@H](O)[C@H]1O)[C@H](O)[C@H](O)CCCCCCCCCCCCCC` [AGL-583, reference compound], in assay [1] (setting [3]), the antitumor effect result is “no evident antitumor effect was observed” and the survival period entry is recorded as “not prolonged at all”.

For the compound `CCCCCCCCCCCCCCCCCCCCCCCCCC(=O)N[C@@H](CO[C@H]1O[C@H](CO)[C@H](O)[C@H](O)[C@H]1O)[C@H](O)[C@H](O)CCCCCCCCCCCCCC` [KRN 7000, (2S,3S,4R)-1-(α-D-galactopyranosyloxy)-2-hexacosanoylamino-3,4-octadecanediol], in assay [2], the “tumorigenicity of treated tumor cells” value was “diminished or completely abolished”. In addition, the survival period result in assay [1] (setting [3]) is listed as “markedly prolonged”. In addition, the “treated mice survived for a long term” value in assay [1] (EL-4-bearing BDF1 mice immunized i.v. with 1×10^5 EL-4 cells cultured 1 day with 100 ng/ml compound, 6 animals per group) is on record as 33.3%.
